Data on ten compounds can be found in patent US20210346354A1, “MACROPINOCYTOSIS IN CANCER” (Memorial Sloan-Kettering Cancer Center, priority 2015, published 2021).

For data set [1], the system named is K-Ras^G12D MEFs. Nature of the data set: Proliferation assay (cell numbers) of K-Ras^G12D MEFs in starvation medium. The class given is cell-based, mouse. As to the method: (§1) Cell culture experiments were performed at 37° C. and 5% CO2 in DMEM/F12 with 10% dialyzed FBS (molecular weight cut-off 10,000; Gemini Biosystems), 100 U/mL penicillin, 100 μg/mL streptomycin, 5 mM glucose and 2 mM glutamine. For proliferation assays, MEFs were plated in complete medium, 5 h later briefly rinsed and then cultured in starvation medium as indicated. For EAA titration experiments, EAAs were supplemented at indicated percentages of 1×MEM amino acid solution (M5550, Sigma). Cancer cell lines were cultured in complete medium for 1 day prior to starvation. Numbers of adherent cells, which are >95% viable as assessed by Trypan Blue exclusion were determined using a Multisizer 4 Coulter Counter (Beckman). For mTOR activation and localization experiments, cells were rinsed and then incubated in EAA starvation medium (DMEM/F12 lacking all amino acids except glutamine) for 1 h, and subsequently placed in medium supplemented with EAAs (1×MEM amino acid solution), albumin (3%, if not stated otherwise) or fresh EAA-free starvation medium for indicated periods of time.

For the next data set, the system named is mTORC1. Kind of data set: mTORC1 re-activation after 1 h EAA starvation, Western blotting against phosphorylated S6K1. To be noted: for albumin-dependent mTORC1 activation: 3% albumin. Type of data set: cell-based, mouse. As to the method: Cells were rinsed with ice-cold PBS and detached from culture plates by incubation with ice-cold trypsin (0.05%). Trypsin was inactivated with ice-cold serum, cells pelleted and rinsed with ice cold PBS. Cells were lysed in ice-cold lysis buffer [50 mM HEPES, pH 7.4, 40 mM […], 2 mM EDTA, 1 mM Na Orthovandanate, 50 mM NaF, 10 mM Na Pyrophosphate, 10 mM Na Glycerophosphate, 1% Triton X-100, 1×Halt protease and phosphatase inhibitor cocktails (Thermo Scientific)] for 15 min, and soluble lysate fractions isolated by centrifugation at 16,000 g for 10 min. Protein concentrations were determined with the Pierce BCA Protein Assay (Thermo Scientific) and equal amounts of proteins analyzed by SDS gel electrophoresis and Western blotting following standard protocols.
as §1
Cells can sense EAAs through the mTORC1 pathway, which integrates amino acid levels with inputs from growth factor signaling to promote cell growth (Ma and Blenis, 2009; Shimobayashi and Hall, 2014). When cells are placed in EAA-free medium, the ability of mTORC1 to phosphorylate downstream targets is repressed. To test if catabolism of extracellularly provided proteins could restore mTORC1 activity in the absence of EAAs, mTORC1 was inactivated by subjecting MEFs to 1 h EAA starvation. Fresh medium containing EAAs or different concentrations of albumin was then added and mTORC1 re-activation assessed by Western blotting against phosphorylated S6K1.

The test system of data set [2] is K-Ras^G12D MEFs. Nature of the data set: Lysosomal degradation of DQ-BSA (fluorescence dequenching) in K-Ras^G12D MEFs. Type of data set: cell-based, mouse. To be noted: for torin 1-induced increase in DQ-BSA fluorescence when transcription is blocked: 5 μg/ml actinomycin D or 1 μM triptolide, 30 min pre-treatment, 6 h DQ-BSA. Here is the method: For live imaging, medium was supplemented with 0.3 mg/ml DQ Green BSA. 1 h prior to imaging, 50 nM LysoTracker Red and 0.2 μg/ml Hoechst were added. Cells were imaged either immediately after addition of DQ-BSA and torin 1, or after 5-6 h incubation using a Zeiss LSM 5 LIVE.
To characterize how cells derive leucine from extracellular proteins, cellular albumin uptake was investigated using constitutively fluorescent albumin and intracellular albumin proteolysis using a self-quenched albumin that emits fluorescence upon degradation (DQ-BSA) (Reis et al., 1998). […] It was then determined whether lysosomal albumin degradation was required to support growth during leucine starvation. […] Ras GTPases can promote cellular uptake of macromolecules through macropinocytosis (Bar-Sagi and Feramisco, 1986). […] To investigate whether this endocytic pathway contributed to albumin-dependent growth, cells were treated with the Na^+/H^+ exchange inhibitor EIPA, which blocks macropinocytosis but not other endocytic pathways (West et al., 1989).
To distinguish these possibilities, it was first tested whether mTORC1 inhibition increased internalization of extracellular macromolecules. […] It was next examined whether mTORC1 inhibition affected lysosomal degradation of internalized proteins.

In a further data set the test system is mTOR. Kind of data set: Lysosomal recruitment of mTOR, immunofluorescence against mTOR and LAMP2. Type of data set: cell-based, mouse. To be noted: K-Ras^G12D MEFs. As to the method: For immunostainings, cells were rinsed with ice-cold PBS, fixed with 4% formaldehyde in PBS for 15 min and permeabilized with 0.05% Triton X-100 in PBS. After rinsing with PBS, cells were blocked with PBG (0.5% BSA, 0.2% cold water fish gelatin in PBS) for 30 min, incubated with primary antibodies in PBG for 1.5 h, washed two times with PBG+4% normal goat serum and then incubated with secondary antibodies in PBG+4% NGS for 45 min. After three washes with PBS, cells were mounted on microscope slides with Prolong Antifade+DAPI and imaged using a Leica TCS SP5-II.
as §1, with “For mTOR activation and localization experiments, cells were rinsed and then incubated in EAA starvation medium (DMEM/F12 lacking all amino acids except glutamine) for 1 h, and subsequently placed in medium supplemented with EAAs (1×MEM amino acid solution), albumin (3%, if not stated otherwise) or fresh EAA-free starvation medium for indicated periods of time.” left out

For data set [3] the following is noted: background statement; cited from earlier work.
In the next data set the test system is wild type MEFs. Kind of data set: Proliferation assay (cell numbers) of wild type MEFs in starvation medium. The class given is cell-based, mouse. As to the method: as §1
The subject of data set [4] is wild type and heterozygous K-Ras^G12D MEFs. Kind of data set: Cell numbers of wild type and K-Ras^G12D MEFs in medium lacking nutrients ±3% albumin. The class given is cell-based, mouse. To be noted: for cell viability: 3% albumin supplementation. As to the method: The dashed line indicates starting cell numbers. # below detection limit. *p<0.05, ** p<0.01, ***p<0.001. […] Data are represented as mean±STDEV (n=3).
as §1
To investigate whether activation of K-Ras signaling altered a cell's ability to metabolize extracellular proteins, we compared immortalized mouse embryonic fibroblasts (MEFs) harboring wild type K-Ras or a constitutively active K-Ras^G12D allele. Albumin is the major protein in plasma and interstitial fluids, its levels ranging from 2-5%. To mimic the protein-rich composition of extracellular fluids, culture medium was therefore supplemented with 10% dialyzed fetal bovine serum ±3% albumin.

Setting [5] is: K-Ras^G12D MEFs, inhibitor added at onset of starvation.
[6] abbreviates: EAAs at 5% of the levels in complete medium, 3% albumin.
Where [7] appears, read: 3% albumin after 1 h EAA starvation.

Numbered stars: 1 amine (or outer) side, 2 acyl side, 3 side chain; on linkers, the order of the positions; unused ones are H or OH. Bridge positions count the residues as written; N and C are the ends. Square brackets hold non-standard residues; d marks the D form. Peptide text beside a SMILES is read from it. I, II: the chains in the order shown. Actinocin(9to1) = Cc1c2oc3c(C)ccc(C(=O)[*:1])c3nc-2c(C(=O)[*:2])c(N)c1=O; NMeV = CN[C@H](C(=O)O)C(C)C; Sar = CNCC(=O)O

With `CCN(c1nc(N)c(C(=O)NC(=N)N)nc1Cl)C(C)C` [EIPA], the cell proliferation entry in the data set with K-Ras^G12D MEFs [1] (EIPA treatment with free leucine added to culture medium) is reported as “restored”; in the data set with K-Ras^G12D MEFs [1] (leucine-free medium +3% albumin, 25 μM EIPA, day 3), “strongly decreased”. Besides, the “albumin-dependent mTORC1 activation” value in the data set on mTORC1 (setting [5]) was “strongly reduced”.

With `Oc1ccc2ccccc2c1SSc1c(O)ccc2ccccc12` [IPA-3], the “albumin-dependent mTORC1 activation” value in the data set with mTORC1 (setting [5]) is “strongly reduced”.

Take `Cc1c2oc3c(C)ccc(C(=O)N[C@@H]4C(=O)N[C@H](C(C)C)C(=O)N5CCC[C@H]5C(=O)N(C)CC(=O)N(C)[C@@H](C(C)C)C(=O)O[C@@H]4C)c3nc-2c(C(=O)N[C@@H]2C(=O)N[C@H](C(C)C)C(=O)N3CCC[C@H]3C(=O)N(C)CC(=O)N(C)[C@@H](C(C)C)C(=O)O[C@@H]2C)c(N)c1=O` [actinomycin D] (I: T[dV]P[Sar][NMeV] / II: T[dV]P[Sar][NMeV]; ester I:1-I:C, II:1-II:C; linker I:N-II:N via Actinocin(9to1)): the “torin 1-induced increase in DQ-BSA fluorescence when transcription is blocked” value in the data set with K-Ras^G12D MEFs [2] is “unaffected”.

Turning to `CO/C1=C\C(C)=C\[C@@H](C)[C@@H](O)[C@@H](C)C/C(C)=C/C=C/[C@H](OC)[C@@H]([C@@H](C)[C@@H](O)[C@H](C)[C@@]2(O)C[C@@H](O)[C@H](C)[C@@H](C(C)C)O2)OC1=O` [bafilomycin A1], the “movement of mTOR to lysosomal membranes in response to albumin” value in the data set with mTOR (200 nM bafilomycin A1 added at onset of EAA starvation) was “completely blocked”. Besides, in the data set on mTORC1 (setting [5]), the “albumin-dependent mTORC1 activation” value is reported as “strongly suppressed” and the “mTORC1 activation by EAAs” value is listed as “did not perturb”.

For `CCN(CC)CCCC(C)Nc1ccnc2cc(Cl)ccc12` (centres unmarked) [chloroquine], the “DQ-BSA degradation in torin 1-treated cells” value with K-Ras^G12D MEFs [2] (250 nM torin 1 plus 20 μM chloroquine or protease inhibitors, 6 h) was “abrogated DQ-BSA degradation”.

Regarding `C=C1[C@@H](C)[C@H]2[C@H](Cc3ccccc3)NC(=O)[C@]23[C@H](OC(C)=O)/C=C/[C@@](C)(O)C(=O)[C@@H](C)C/C=C/[C@H]3[C@@H]1O` [cytochalasin D], the “albumin-dependent mTORC1 activation” value in the data set on mTORC1 (setting [5]) is “strongly reduced”.

Consider `C/C1=C\[C@H](C)C[C@H](C)OC(=O)C[C@H](c2ccc(O)cc2)NC(=O)[C@@H](Cc2c(Br)[nH]c3ccccc23)N(C)C(=O)[C@H](C)NC(=O)[C@@H](C)C1` [jasplakinolide], for which the “albumin-dependent mTORC1 activation” value with mTORC1 (setting [5]) is “strongly reduced”.

As for `CO[C@H]1C[C@@H]2CC[C@@H](C)[C@@](O)(O2)C(=O)C(=O)N2CCCC[C@H]2C(=O)O[C@H]([C@H](C)C[C@@H]2CC[C@@H](O)[C@H](OC)C2)CC(=O)[C@H](C)/C=C(\C)[C@@H](O)[C@@H](OC)C(=O)[C@H](C)C[C@H](C)/C=C/C=C/C=C/1C` [rapamycin], the stability result in data set [3] is reported as “not very stable”.

Take `CC(C)[C@]12O[C@H]1[C@@H]1O[C@]13[C@]1(O[C@H]1C[C@H]1C4=C(CC[C@@]13C)C(=O)OC4)[C@@H]2O` [triptolide]: the “torin 1-induced increase in DQ-BSA fluorescence when transcription is blocked” value with K-Ras^G12D MEFs [2] was “unaffected”.

Turning to “albumin: bovine serum albumin (A1470, Sigma) added to medium as extracellular protein nutrient”, the “subcellular localization of mTOR” value in the data set with mTOR (1 h EAA starvation, then 3% albumin) is “localized to punctate structures that were marked by the lysosomal membrane protein LAMP2”. In the data set on wild type MEFs (setting [6]), the survival and proliferation result was “improved survival of wild type MEFs, but did not support their proliferation”. Moreover, the cell viability entry with wild type MEFs (low-EAA medium, increasing albumin levels (1-3%)) is recorded as “improved viability”; in the data set with K-Ras^G12D MEFs [1] (medium lacking isoleucine, lysine, or arginine, physiological levels of albumin (3%)) it was “rescued cell viability”; in data set [4] (non-essential amino acid (NEAA) starvation), “modestly improved viability”; in data set [4] (starved for leucine), “completely restored”. The cell proliferation entry is recorded as “significant increase in proliferation” in the data set on K-Ras^G12D MEFs [1] (setting [6]); “able to sustain proliferation” in the data set with K-Ras^G12D MEFs [1] (leucine-free medium containing 3% albumin, several consecutive days); “ceased to proliferate, regardless of the presence of 3% albumin” in data set [4] (glucose-free medium ±3% albumin). Besides, in the data set with K-Ras^G12D MEFs [1] (low-EAA medium (5% EAAs)), the “albumin concentration at which proliferation could be sustained” value is given as “at least 1%”. In addition, the proliferation rate result with K-Ras^G12D MEFs [1] (low-EAA medium, albumin concentration raised to 3%) is given as “increased progressively”. The cell numbers result in the data set on K-Ras^G12D MEFs [1] (medium lacking glutamine, 3% albumin supplementation) is reported as “increase in cell numbers, albeit to a minor extent”. Moreover, the “time after which mTORC1-dependent phosphorylation resumed” value in the data set on mTORC1 (setting [7]) turned out to be 2 h. Further, the “time to maximal levels of mTORC1-dependent phosphorylation” value in the data set with mTORC1 (setting [7]) is 4 h. Besides, the S6K1 phosphorylation entry in the data set on mTORC1 (wild type and K-Ras^G12D MEFs, EAA-free medium with 1-3% albumin) is given as “concentration-dependent increase in S6K1 phosphorylation”. Besides, the cell survival result in data set [4] (medium lacking all essential amino acids (EAAs), 3% albumin) is on record as “striking rescue of cell survival”.
